Data on 24 compounds can be found in patent publication US20240368135A1 (VERTEX PHARMACEUTICALS INCORPORATED, priority 2021, published 2024).

pIC50: −log10 of the molar value.

By pIC50 is commonly meant the IC50 on a negative log10 scale, so that one unit is a factor of ten.

Sequence of human NaV 1.8 (Q9Y5Y9 126-399 limits assumed): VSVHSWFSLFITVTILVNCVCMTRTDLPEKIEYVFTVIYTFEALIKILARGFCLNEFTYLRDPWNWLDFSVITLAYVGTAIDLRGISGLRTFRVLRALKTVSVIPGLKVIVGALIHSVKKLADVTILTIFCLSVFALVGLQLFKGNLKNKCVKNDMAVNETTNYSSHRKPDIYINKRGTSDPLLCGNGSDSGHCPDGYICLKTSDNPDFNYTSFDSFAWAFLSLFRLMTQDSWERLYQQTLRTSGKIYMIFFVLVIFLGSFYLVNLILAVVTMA
Sequence of human NaV 1.8 (Q9Y5Y9 660-890 limits assumed): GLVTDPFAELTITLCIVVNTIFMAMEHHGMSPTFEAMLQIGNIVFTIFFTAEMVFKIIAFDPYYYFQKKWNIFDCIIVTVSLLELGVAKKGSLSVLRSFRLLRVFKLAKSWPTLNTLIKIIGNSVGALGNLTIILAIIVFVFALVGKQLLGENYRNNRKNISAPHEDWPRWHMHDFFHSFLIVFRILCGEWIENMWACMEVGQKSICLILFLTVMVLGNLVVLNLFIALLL
Sequence of human NaV 1.8 (Q9Y5Y9 1148-1722 limits assumed): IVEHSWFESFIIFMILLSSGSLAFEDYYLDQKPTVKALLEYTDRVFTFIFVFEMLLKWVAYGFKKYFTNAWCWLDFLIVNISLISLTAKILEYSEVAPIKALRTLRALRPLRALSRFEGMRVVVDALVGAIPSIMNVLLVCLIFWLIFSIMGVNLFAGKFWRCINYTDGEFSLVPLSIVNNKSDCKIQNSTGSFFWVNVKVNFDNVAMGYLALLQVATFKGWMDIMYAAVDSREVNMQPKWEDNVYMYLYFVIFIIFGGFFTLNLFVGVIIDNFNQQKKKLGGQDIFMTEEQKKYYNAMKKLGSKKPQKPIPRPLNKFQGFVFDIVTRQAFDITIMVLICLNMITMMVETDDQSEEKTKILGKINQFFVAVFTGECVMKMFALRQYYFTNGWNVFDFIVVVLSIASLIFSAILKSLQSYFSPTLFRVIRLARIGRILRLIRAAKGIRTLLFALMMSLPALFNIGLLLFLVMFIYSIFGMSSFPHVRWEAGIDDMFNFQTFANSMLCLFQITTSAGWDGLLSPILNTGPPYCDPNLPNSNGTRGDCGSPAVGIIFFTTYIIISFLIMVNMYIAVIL

One assay addresses human NaV 1.8 (Homo sapiens, UniProt Q9Y5Y9). In words: E-VIPR assay detecting and measuring NaV inhibition properties. The assay is classed as cell-based. The note with it: HEK cells expressing truncated human NaV 1.8; in the presence of human serum (compound numbers followed by *); read-out: IC50 in the E-VIPR Assay, performed in the presence of human serum. In short, it runs like this: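 Membrane potential was followed by coumarin/oxonol FRET during electrical field stimulation of matrigel-seeded HEK cells carrying truncated human NaV1.8 plus KIR2.1. Dosing used 11 points, 3-fold steps, top 300 nM final, 0.625% DMSO, with or without 25% human serum.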
As to `COc1c([C@@H]2[C@@H](C(=O)Nc3ccnc([S+](C)[O-])c3)O[C@](C)(C(F)(F)F)[C@@H]2C)ccc(F)c1F` (single isomer, unassigned) [Compound 6], the pIC50 is at most 6.00.

Still in this assay, the particulars now being: HEK cells expressing truncated human NaV 1.8; no human serum; read-out: IC50 in the E-VIPR Assay.
`COc1c([C@H]2[C@H](C(=O)Nc3ccnc(N4C[C@@H](C)NCC4=O)c3)O[C@@](C)(C(F)(F)F)[C@H]2C)ccc(F)c1F` [Compound 480, (2R,3S,4S,5R)-3-(3,4-difluoro-2-methoxyphenyl)-4,5-dimethyl-N-(2-((R)-5-methyl-2-oxopiperazin-1-yl)pyridin-4-yl)-5-(trifluoromethyl)tetrahydrofuran-2-carboxamide]: the pIC50 was above 8.00.

With `COc1c([C@@H]2[C@@H](C(=O)Nc3cncc(S(=O)(=O)N(C)C)c3)O[C@](C)(C(F)(F)F)[C@@H]2C)ccc(F)c1F` (stereo in doubt) [Compound 452, rel-(2S,3R,4R,5S)-3-(3,4-difluoro-2-methoxyphenyl)-N-(5-(N,N-dimethylsulfamoyl)pyridin-3-yl)-4,5-dimethyl-5-(trifluoromethyl)tetrahydrofuran-2-carboxamide], the negative-log IC50 (pIC50) was at most 6.00.

As for `Cc1nn(C(F)F)cc1NC(=O)[C@@H]1O[C@@](C)(C(F)(F)F)[C@@H](C)[C@H]1c1ccc(F)c(F)c1CN1CC2(COC2)C1` [Compound 670, (2R,3S,4S,5R)-3-(2-((2-oxa-6-azaspiro[3.3]heptan-6-yl)methyl)-3,4-difluorophenyl)-N-(1-(difluoromethyl)-3-methyl-1H-pyrazol-4-yl)-4,5-dimethyl-5-(trifluoromethyl)tetrahydrofuran-2-carboxamide], the pIC50 was 7.00 to 8.00.

As to `COc1c(C2C(C(=O)Nc3ccnc(C(C)(C)O)c3)OC(C)(C(F)(F)F)C2C)ccc(F)c1F` (single isomer, unassigned) [Compound 47, 3-(3,4-difluoro-2-methoxy-phenyl)-N-[2-(1-hydroxy-1-methyl-ethyl)-4-pyridyl]-4,5-dimethyl-5-(trifluoromethyl)tetrahydrofuran-2-carboxamide], the negative logarithm of the IC50 (pIC50) was at most 6.00.

As to `COc1c([C@H]2[C@H](C(=O)Nc3cnn(C4COC4)c3C)O[C@@](C)(C(F)(F)F)[C@H]2C)ccc(F)c1F` (single isomer, unassigned) [Compound 331], the negative logarithm of the IC50 (pIC50) is 7.00 to 8.00.

Consider `COc1c([C@H]2[C@H](C(=O)Nc3ccnc(N4CCN[C@H](C)C4=O)c3)O[C@@](C)(C(F)(F)F)[C@H]2C)ccc(F)c1F` [Compound 484, (2R,3S,4S,5R)-3-(3,4-difluoro-2-methoxyphenyl)-4,5-dimethyl-N-(2-((R)-3-methyl-2-oxopiperazin-1-yl)pyridin-4-yl)-5-(trifluoromethyl)tetrahydrofuran-2-carboxamide], for which the pIC50 is 7.00 to 8.00.

For the compound `COc1c([C@H]2[C@H](C(=O)Nc3ccnc(N4C[C@@H]5C[C@H](C4=O)N5C)c3)O[C@@](C)(C(F)(F)F)[C@H]2C)ccc(F)c1F` (single isomer, unassigned) [Compound 510, rel-(2R*,3S*,4S*,5R*)-3-(3,4-difluoro-2-methoxyphenyl)-4,5-dimethyl-N-(2-((1R,5S)-6-methyl-2-oxo-3,6-diazabicyclo[3.1.1]heptan-3-yl)pyridin-4-yl)-5-(trifluoromethyl)tetrahydrofuran-2-carboxamide], the pIC50 is 7.00 to 8.00.

Turning to `COc1c([C@H]2[C@H](C(=O)Nc3ccc(-c4nncn4C)nc3)O[C@@](C)(C(F)(F)F)[C@H]2C)ccc(F)c1F` [Compound 397, (2R,3S,4S,5R)-3-(3,4-difluoro-2-methoxyphenyl)-4,5-dimethyl-N-(6-(4-methyl-4H-1,2,4-triazol-3-yl)pyridin-3-yl)-5-(trifluoromethyl)-tetrahydrofuran-2-carboxamide], the negative-log IC50 (pIC50) is 6.00 to 7.00.

With `C[C@H]1[C@@H](c2ccc(F)c(F)c2OC(F)F)[C@H](C(=O)Nc2ccc(C(N)=O)nc2)O[C@@]1(C)C(F)(F)F` (single isomer, unassigned) [Compound 94], the pIC50 was above 8.00.

With `COc1c([C@H]2[C@H](C(=O)Nc3ccnc(C4(N)CCOC4)c3)O[C@@](C)(C(F)(F)F)[C@H]2C)ccc(F)c1F` (single isomer, unassigned) [Compound 346, rel-(2R*,3S*,4S*,5R*)-N-(2-(3-aminotetrahydrofuran-3-yl)pyridin-4-yl)-3-(3,4-difluoro-2-methoxyphenyl)-4,5-dimethyl-5-(trifluoromethyl)-tetrahydrofuran-2-carboxamide], the pIC50 is above 8.00.

Regarding `CC(C)Oc1c(C2C(C(=O)Nc3cc(S(C)(=O)=O)ccn3)OC(C)(C(F)(F)F)C2C)ccc(F)c1F` (stereo not drawn) [Compound 115, 3-(3,4-difluoro-2-isopropoxy-phenyl)-4,5-dimethyl-N-(4-methylsulfonyl-2-pyridyl)-5-(trifluoromethyl)tetrahydrofuran-2-carboxamide], the negative logarithm of the IC50 (pIC50) was at most 6.00.

With `Cc1nn(C(F)F)cc1NC(=O)[C@@H]1O[C@@](C)(C(F)(F)F)[C@@H](C)[C@H]1c1ccc(F)c(F)c1CCN1CC2(COC2)C1` [Compound 679, (2R,3S,4S,5R)-N-[1-(difluoromethyl)-3-methyl-pyrazol-4-yl]-3-[3,4-difluoro-2-[2-(2-oxa-6-azaspiro[3.3]heptan-6-yl)ethyl]phenyl]-4,5-dimethyl-5-(trifluoromethyl)tetrahydrofuran-2-carboxamide], the pIC50 was at most 6.00.

`COc1c(C2C(C(=O)Nc3cccnc3)OC(C)(C(F)(F)F)C2C)ccc(F)c1F` (single isomer, unassigned) [Compound 29, 3-(3,4-difluoro-2-methoxy-phenyl)-4,5-dimethyl-N-(3-pyridyl)-5-(trifluoromethyl)tetrahydrofuran-2-carboxamide]: the negative logarithm of the IC50 (pIC50) is at most 6.00.

Turning to `COc1c(C2C(C(=O)Nc3ccnc(S(C)(=N)=O)c3)OC(C)(C(F)(F)F)C2C)ccc(F)c1F` (single isomer, unassigned) [Compound 53, 3-(3,4-difluoro-2-methoxy-phenyl)-4,5-dimethyl-N-[2-(methylsulfonimidoyl)-4-pyridyl]-5-(trifluoromethyl)tetrahydrofuran-2-carboxamide], the pIC50 is 6.00 to 7.00.

As to `Cc1nn(C(F)F)cc1NC(=O)[C@@H]1O[C@@](C)(C(F)(F)F)[C@@H](C)[C@H]1c1ccc(F)c(F)c1OCCO` [Compound 536, (2R,3S,4S,5R)-3-(3,4-difluoro-2-(2-hydroxyethoxy)phenyl)-N-(1-(difluoromethyl)-3-methyl-1H-pyrazol-4-yl)-4,5-dimethyl-5-(trifluoromethyl)tetrahydrofuran-2-carboxamide], the pIC50 is above 8.00.

In the case of `C[C@H]1[C@@H](c2ccc(F)c(F)c2OC2CC(O)C2)[C@H](C(=O)Nc2cccnc2)O[C@@]1(C)C(F)(F)F` (stereo partly drawn) [Compound 654, (2R,3S,4S,5R)-3-(3,4-difluoro-2-((1S,3R)-3-hydroxycyclobutoxy)phenyl)-4,5-dimethyl-N-(pyridin-3-yl)-5-(trifluoromethyl)tetrahydrofuran-2-carboxamide], the pIC50 is above 8.00.

In the case of `COc1c([C@H]2[C@H](C(=O)Nc3ccnc(C(O)C(F)F)c3)O[C@@](C)(C(F)(F)F)[C@H]2C)ccc(F)c1F` (single isomer, unassigned) [Compound 254, rel-(2R*,3S*,4S*,5R*)-N-(2-(2,2-difluoro-1-hydroxyethyl)pyridin-4-yl)-3-(3,4-difluoro-2-methoxyphenyl)-4,5-dimethyl-5-(trifluoromethyl)tetrahydrofuran-2-carboxamide], the pIC50 was above 8.00.

For the compound `COc1c(C2C(C(=O)Nc3ccc(C(N)=O)nc3)OC(C)(C(F)(F)F)C2C)ccc(C(F)F)c1F` (stereo not drawn) [Compound 158, 5-[[3-[4-(difluoromethyl)-3-fluoro-2-methoxy-phenyl]-4,5-dimethyl-5-(trifluoromethyl)tetrahydrofuran-2-carbonyl]amino]pyridine-2-carboxamide], the negative logarithm of the IC50 (pIC50) is 7.00 to 8.00.

Regarding `COc1c([C@H]2[C@H](C(=O)Nc3ccnc(C(CO)N(C)C)c3)O[C@@](C)(C(F)(F)F)[C@H]2C)ccc(F)c1F` (single isomer, unassigned) [Compound 368], the negative logarithm of the IC50 (pIC50) was above 8.00.

`C[C@H]1[C@@H](c2ccc(F)c(F)c2O)[C@H](C(=O)Nc2ccc(C(N)=O)nc2)O[C@@]1(C)C(F)(F)F` [Compound 649, 5-[[(2R,3S,4S,5R)-3-(3,4-difluoro-2-hydroxy-phenyl)-4,5-dimethyl-5-(trifluoromethyl)tetrahydrofuran-2-carbonyl]amino]pyridine-2-carboxamide]: the pIC50 is 6.00 to 7.00.

Regarding `COc1c([C@H]2[C@H](C(=O)Nc3ccnc(N4CCN(C)CC4=O)c3)O[C@@](C)(C(F)(F)F)[C@H]2C)ccc(F)c1F` [Compound 379, (2R,3S,4S,5R)-3-(3,4-difluoro-2-methoxyphenyl)-4,5-dimethyl-N-(2-(4-methyl-2-oxopiperazin-1-yl)pyridin-4-yl)-5-(trifluoromethyl)tetrahydrofuran-2-carboxamide], the negative-log IC50 (pIC50) was above 8.00.

For `Cc1nocc1NC(=O)[C@@H]1O[C@@](C)(C(F)(F)F)[C@@H](C)[C@H]1c1ccc(F)c(F)c1OCCN1C[C@H]2COC[C@H]2C1` [Compound 634, (2R,3S,4S,5R)-3-(3,4-difluoro-2-(2-((3aR,6aS)-tetrahydro-1H-furo[3,4-c]pyrrol-5(3H)-yl)ethoxy)phenyl)-4,5-dimethyl-N-(3-methylisoxazol-4-yl)-5-(trifluoromethyl)tetrahydrofuran-2-carboxamide], the negative logarithm of the IC50 (pIC50) is 7.00 to 8.00.

Take `COc1c([C@H]2[C@H](C(=O)Nc3cnc(CCO)n3C)O[C@@](C)(C(F)(F)F)[C@H]2C)ccc(F)c1F` [Compound 445, (2R,3S,4S,5R)-3-(3,4-difluoro-2-methoxyphenyl)-N-(2-(2-hydroxyethyl)-1-methyl-1H-imidazol-5-yl)-4,5-dimethyl-5-(trifluoromethyl)tetrahydrofuran-2-carboxamide]: the pIC50 is at most 6.00.
